# Data taken from the supplement of paper PMC10307832.
# Tests used:
# Test in all cases: relative viability (nuclei count vs DMSO), 5 days (fraction); higher = more cells survive
# [1] = system: NCI-H727
# Outline: (§1)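 Values are medians from duplicate plates. Each reflects relative viability, defined as the nuclei count of treated wells over that of vehicle wells. Lung cancer cell lines in 1536-well plates were pin-tool dosed one day after seeding with one drug alone or with a fixed anchor-drug dose plus five library-drug doses (not always all listed) in √10 steps, then fixed, stained and imaged at 4× after 5 days.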
# [2] = system: NCI-H1650
# Outline: as §1
# [3] = system: ChaGo-K-1
# Outline: as §1
# [4] = system: NCI-H2405
# Outline: as §1
# [5] = system: NCI-H2228
# Outline: as §1
# [6] = system: NCI-H23
# Outline: as §1
# [7] = system: NCI-H1755
# Outline: as §1
# [8] = system: NCI-H1703
# Outline: as §1
# [9] = system: NCI-H1975
# Outline: as §1
# [10] = system: NCI-H596
# Outline: as §1
# [11] = system: NCI-H460
# Outline: as §1
# [12] = system: LCLC-97TM1
# Outline: as §1
# [13] = system: NCI-H1993
# Outline: as §1
# [14] = system: HCC-78
# Outline: as §1
# [15] = system: NCI-H1944
# Outline: as §1
# [16] = system: NCI-H2126
# Outline: as §1
# [17] = system: LK-2
# Outline: as §1
# [18] = system: NCI-H1355
# Outline: as §1
# [19] = system: HOP-62
# Outline: as §1
# [20] = system: PC-3 [JPC-3]
# Outline: as §1
# [21] = system: NCI-H1734
# Outline: as §1
smiles,measurement,setting,value
Nc1cccc2c1CN(C1CCC(=O)NC1=O)C2=O (stereo unspecified) [Lenalidomide] + CC1(C)CCC(c2ccc(Cl)cc2)=C(CN2CCN(c3ccc(C(=O)NS(=O)(=O)c4ccc(N[C@H](CCN5CCOCC5)CSc5ccccc5)c(S(=O)(=O)C(F)(F)F)c4)cc3)CC2)C1 [Navitoclax] (partner 0.5 µM),relative viability,[1]; first compound 0.253 µM,0.449
same,relative viability,[1]; first compound 2.53 µM,0.387
same,relative viability,[1]; first compound 8 µM,0.345
same,relative viability,[2]; first compound 0.253 µM,1.06
same,relative viability,[2]; first compound 0.8 µM,1.22
same,relative viability,[2]; first compound 2.53 µM,1.4
same,relative viability,[2]; first compound 8 µM,1.24
same,relative viability,[3]; first compound 0.253 µM,1.08
same,relative viability,[3]; first compound 2.53 µM,1.05
same,relative viability,[3]; first compound 8 µM,0.949
same,relative viability,[4]; first compound 0.253 µM,0.83
same,relative viability,[4]; first compound 0.8 µM,0.921
same,relative viability,[4]; first compound 2.53 µM,0.793
same,relative viability,[4]; first compound 8 µM,0.802
same,relative viability,[5]; first compound 0.253 µM,0.821
same,relative viability,[5]; first compound 0.8 µM,0.711
same,relative viability,[5]; first compound 2.53 µM,0.949
same,relative viability,[5]; first compound 8 µM,0.905
same,relative viability,[6]; first compound 0.253 µM,0.876
same,relative viability,[6]; first compound 0.8 µM,0.917
same,relative viability,[6]; first compound 2.53 µM,0.999
same,relative viability,[6]; first compound 8 µM,0.649
same,relative viability,[7]; first compound 0.253 µM,0.994
same,relative viability,[7]; first compound 0.8 µM,1.01
same,relative viability,[7]; first compound 2.53 µM,1.01
same,relative viability,[7]; first compound 8 µM,0.745
same,relative viability,[8]; first compound 0.253 µM,0.994
same,relative viability,[8]; first compound 0.8 µM,1.28
same,relative viability,[8]; first compound 2.53 µM,1.23
same,relative viability,[8]; first compound 8 µM,1.23
same,relative viability,[9]; first compound 0.253 µM,1.13
same,relative viability,[9]; first compound 0.8 µM,1.07
same,relative viability,[9]; first compound 2.53 µM,1.25
same,relative viability,[9]; first compound 8 µM,1.19
same,relative viability,[10]; first compound 0.253 µM,0.951
same,relative viability,[10]; first compound 0.8 µM,0.795
same,relative viability,[10]; first compound 2.53 µM,0.989
same,relative viability,[10]; first compound 8 µM,0.879
same,relative viability,[11]; first compound 0.253 µM,0.811
same,relative viability,[11]; first compound 0.8 µM,1.28
same,relative viability,[11]; first compound 2.53 µM,1.15
same,relative viability,[11]; first compound 8 µM,1.13
same,relative viability,[12]; first compound 0.8 µM,0.544
same,relative viability,[12]; first compound 2.53 µM,0.502
same,relative viability,[12]; first compound 8 µM,0.407
same,relative viability,[13]; first compound 0.253 µM,0.906
same,relative viability,[13]; first compound 0.8 µM,0.855
same,relative viability,[13]; first compound 2.53 µM,0.88
same,relative viability,[13]; first compound 8 µM,0.797
same,relative viability,[14]; first compound 0.253 µM,0.834
same,relative viability,[14]; first compound 0.8 µM,0.72
same,relative viability,[14]; first compound 2.53 µM,0.842
same,relative viability,[14]; first compound 8 µM,0.654
same,relative viability,[15]; first compound 0.253 µM,0.984
same,relative viability,[15]; first compound 0.8 µM,1.08
same,relative viability,[15]; first compound 2.53 µM,1.02
same,relative viability,[15]; first compound 8 µM,0.873
same,relative viability,[16]; first compound 0.253 µM,0.798
same,relative viability,[16]; first compound 0.8 µM,0.907
same,relative viability,[16]; first compound 2.53 µM,0.815
same,relative viability,[16]; first compound 8 µM,0.688
same,relative viability,[17]; first compound 0.253 µM,0.817
same,relative viability,[17]; first compound 0.8 µM,0.85
same,relative viability,[17]; first compound 2.53 µM,0.959
same,relative viability,[17]; first compound 8 µM,0.709
same,relative viability,[18]; first compound 0.253 µM,1
same,relative viability,[18]; first compound 0.8 µM,0.737
same,relative viability,[18]; first compound 2.53 µM,0.889
same,relative viability,[18]; first compound 8 µM,0.561
same,relative viability,[19]; first compound 0.253 µM,1.07
same,relative viability,[19]; first compound 0.8 µM,0.985
same,relative viability,[19]; first compound 2.53 µM,0.944
same,relative viability,[19]; first compound 8 µM,1.04
same,relative viability,[20]; first compound 0.253 µM,0.752
same,relative viability,[20]; first compound 0.8 µM,0.771
same,relative viability,[20]; first compound 2.53 µM,0.863
same,relative viability,[20]; first compound 8 µM,0.734
same,relative viability,[21]; first compound 0.253 µM,0.802
same,relative viability,[21]; first compound 0.8 µM,0.831
same,relative viability,[21]; first compound 2.53 µM,1.01
same,relative viability,[21]; first compound 8 µM,0.796
